The target in series [1] is T1, Bifunctional epoxide hydrolase 2 (Homo sapiens, UniProt P34913).
T1 sequence (P34913 whole entry): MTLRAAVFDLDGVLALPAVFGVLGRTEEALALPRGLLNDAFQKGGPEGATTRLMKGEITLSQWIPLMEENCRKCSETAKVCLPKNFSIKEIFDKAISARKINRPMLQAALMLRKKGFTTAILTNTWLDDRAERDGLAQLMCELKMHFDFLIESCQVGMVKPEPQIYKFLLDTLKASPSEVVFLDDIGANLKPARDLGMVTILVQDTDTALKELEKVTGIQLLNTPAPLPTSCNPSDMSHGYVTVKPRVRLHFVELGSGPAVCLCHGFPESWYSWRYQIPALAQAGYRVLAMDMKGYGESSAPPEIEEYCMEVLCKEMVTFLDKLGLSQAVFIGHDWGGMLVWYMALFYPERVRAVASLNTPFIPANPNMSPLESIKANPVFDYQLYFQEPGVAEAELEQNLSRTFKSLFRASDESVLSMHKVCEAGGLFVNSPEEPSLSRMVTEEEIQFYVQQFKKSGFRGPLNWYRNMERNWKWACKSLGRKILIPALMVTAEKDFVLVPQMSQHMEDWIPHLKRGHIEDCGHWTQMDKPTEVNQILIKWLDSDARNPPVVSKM
As to the kind of experiment: Inhibition of human recombinant sEH expressed in baculovirus infected Sf9 cells using PHOME as substrate preincubated for 10 mins followed by substrate addition measured after 60 mins by fluorescence based assay. Type of series: cell-based.

A short description of series [2]: Metabolic stability in human liver microsomes assessed as intrinsic clearance measured up to 60 mins in presence of NADPH by LC-MS/MS analysis. Type of series: ADME, Microsome. The settings on record: 1 h. In general terms: Microsomes from liver hold many membrane-bound enzymes, among them those of drug oxidation.
A short description of series [3]: Metabolic stability in mouse liver microsomes assessed as half life measured up to 60 mins in presence of NADPH by LC-MS/MS analysis. Type of series: ADME, Microsome.
The nature of series [4]: Metabolic stability in human liver microsomes assessed as half life measured up to 60 mins in presence of NADPH by LC-MS/MS analysis. It counts as ADME, Microsome.
A short description of series [5]: Toxicity in PTX-induced neuropathic pain male C57BL/6 mouse model assessed as change in body weight at 60 mg/kg/day, po treated for 14 days. Type of series: organism-based. The settings on record: in vivo, 336 h, time 14 day.
In series [6] the test system is Mus musculus. As to the kind of experiment: Analgesic activity in PTX-induced neuropathic pain male C57BL/6 mouse model assessed as improvement in mechanical paw withdrawal threshold at 60 mg/kg, po administered for 14 days by Von Frey test. It counts as functional, organism-based. The settings on record: time 14.0 day.
Series [7] has as its system Mus musculus. As to the kind of experiment: Analgesic activity in PTX-induced neuropathic pain male C57BL/6 mouse model assessed as improvement in mechanical paw withdrawal threshold at 60 mg/kg, po measured up to 4 hrs by Von Frey test. Type of series: functional, organism-based.
A short description of series [8]: Cytotoxicity against human PBMC at 10 uM incubated for 24 hrs by MTT assay. Type of series: toxicity, cell-based. On the technique in general: Tetrazolium dyes change colour on reduction, which living cells bring about.
Series [9] in a line: Clearance in male CD-1 mouse at 2 mg/kg, iv measured up to 24 hrs by LC-MS/MS analysis. It counts as ADME, organism-based. The settings on record: in vivo.
Series [10] can be described thus: Oral bioavailability in male CD-1 mouse at 10 mg/kg measured up to 24 hrs by LC-MS/MS analysis. Type of series: ADME, organism-based. The settings on record: in vivo.
A short description of series [11]: Permeability coefficient of compound in PBS at pH 7.4 at 10 uM incubated for 16 hrs PAMPA-BBB assay.
The test system of series [12] is Mus musculus. As to the kind of experiment: Analgesic activity in PTX-induced neuropathic pain male C57BL/6 mouse model assessed as improvement in mechanical paw withdrawal threshold at 30 mg/kg, po administered for 14 days by Von Frey test. It counts as functional, organism-based. The conditions noted are these: time 14.0 day.
Series [13] can be described thus: AUC (0 to infinity) in male CD-1 mouse at 2 mg/kg, iv measured up to 24 hrs by LC-MS/MS analysis. The settings on record: in vivo. Type of series: ADME, organism-based.
Series [14] is described as follows: Half life in male CD-1 mouse at 2 mg/kg, iv measured up to 24 hrs by LC-MS/MS analysis. It counts as ADME, organism-based. The settings on record: in vivo.
Series [15] can be described thus: MRT in male CD-1 mouse at 10 mg/kg, po measured up to 24 hrs by LC-MS/MS analysis. Type of series: ADME, organism-based. The conditions noted are these: in vivo.
In series [16] the test system is Mus musculus. As to the kind of experiment: Analgesic activity in PTX-induced neuropathic pain male C57BL/6 mouse model assessed as improvement in mechanical paw withdrawal threshold at 10 to 30 mg/kg, po measured for 2 to 4 hrs by Von Frey test. It counts as functional, organism-based. The settings on record: dose 10-30 mg/kg, time 2-4 hrs.
Series [17] has as its system PBMC. As to the kind of experiment: Anti-inflammatory activity in LPS-induced human PBMC assessed as reduction in TNF-alpha level pre-incubated with compound for 30 mins followed by LPS stimulation and measured after 6 hrs by ELISA. Type of series: functional, cell-based. The conditions noted are these: dose 1-1000 nM, time 390.0 min. In general terms: In an ELISA, binding on a coated surface is turned into a signal by an enzyme label.

Series [18] is described as follows: Cmax in male CD-1 mouse at 10 mg/kg, po measured up to 24 hrs by LC-MS/MS analysis. It counts as ADME, organism-based. The settings on record: in vivo.
In series [19] the test system is Mus musculus. Description: Analgesic activity in PTX-induced neuropathic pain male C57BL/6 mouse model assessed as improvement in mechanical paw withdrawal threshold at 30 mg/kg, po measured up to 4 hrs by Von Frey test. It counts as functional, organism-based.
Series [20] has as its system Mus musculus. Description: Analgesic activity in PTX-induced neuropathic pain male C57BL/6 mouse model assessed as improvement in mechanical paw withdrawal threshold at 10 mg/kg, po measured up to 4 hrs by Von Frey test. It counts as functional, organism-based.
Series [21] can be described thus: AUC (0 to infinity) in male CD-1 mouse at 10 mg/kg, po measured up to 24 hrs by LC-MS/MS analysis. Type of series: ADME, organism-based. The settings on record: in vivo.
Series [22] can be described thus: Half life in male CD-1 mouse at 10 mg/kg, po measured up to 24 hrs by LC-MS/MS analysis. It counts as ADME, organism-based. The conditions noted are these: in vivo.
Series [23] can be described thus: MRT in male CD-1 mouse at 2 mg/kg, iv measured up to 24 hrs by LC-MS/MS analysis. Type of series: ADME, organism-based. The conditions noted are these: in vivo.
Series [24] in a line: Volume of distribution at steady state in male CD-1 mouse at 2 mg/kg, iv measured up to 24 hrs by LC-MS/MS analysis. Type of series: ADME, organism-based. The conditions noted are these: in vivo, read-out: Vdss.
The test system of series [25] is PBMC. Description: Anti-inflammatory activity in LPS-induced human PBMC assessed as reduction in IL-6 level pre-incubated with compound for 30 mins followed by LPS stimulation and measured after 6 hrs by ELISA. It counts as functional, cell-based. The settings on record: dose 1-1000 nM.
A short description of series [26]: C0 in male CD-1 mouse at 2 mg/kg, iv measured up to 24 hrs by LC-MS/MS analysis. It counts as ADME, organism-based. The conditions noted are these: in vivo.

Calls of active or inactive are those of the source.

As to `O=C(NCc1ccccc1)Nc1ccc(-c2ccc(=O)[nH]n2)cc1`, the IC50 in [1] was more than 0.1 µM.
Take `Cn1nc(-c2ccc(NC(=O)NCc3ccccc3C(F)(F)F)cc2)ccc1=O`: the CLH in [2] was less than 7.5 µL/min/mg. Moreover, the half-life in series [3] and in series [4] was more than 3.08 h in each case.
Turning to `O=C(Cc1ccccc1C(F)(F)F)Nc1ccc(-c2ccc(=O)[nH]n2)cc1`, the half-maximal inhibitory concentration (IC50) in series [1] was more than 0.1 µM.
Regarding `NCC1(CC(=O)O)CCCCC1` [GABAPENTIN], the Activity entry is “Non-toxic” in [5], “Active; Compound Effect Noticeably Decreased With Prolonged Administration” in the series with Mus musculus [6] and “Active; Exhibited Consistent And Prolonged Effect” in the series on Mus musculus [7].
Regarding `O=C(NCc1ccccc1F)Nc1ccc(-c2ccc(=O)[nH]n2)cc1`, in series [1], the concentration for half-maximal inhibition (IC50) is not below 0.1 µM.
`O=C(NCc1ccccc1OC(F)(F)F)Nc1ccc(-c2ccc(=O)[nH]n2)cc1`: the Activity result in [8] was “Non-toxic”; in the series on Mus musculus [12], “Active; Effect Was Lower Than Gabapentin With Chronic Use, But Its Efficacy Remained Stable”; in the series with PBMC [17] it was “Dose-dependent-effect”; in the series on PBMC [25] it was “Dose-dependent-effect”. In [9], this molecule registered a clearance of 4.8 mL/min/kg. In [10], the bioavailability was 78%. In addition, the apparent permeability (Papp) at 16 h, 10 µM in series [11] is 3.83 ×10⁻⁶ cm/s. Also, the total exposure AUC(0-inf) in series [13] was 7630 ng·h/mL; in [21] it was 29700 ng·h/mL. Further, the half-life in series [14] was 3.21 h; in series [22] it was 2.43 h; in series [3] it was more than 3.08 h; in [4], more than 3.08 h. In addition, the MRT came out at 5.23 h in [15] and 3.5 h in [23]. Besides, the outcome in the series with Mus musculus [16] and in the series on Mus musculus [19] was Active. For the same molecule, the maximum concentration (Cmax) in series [18] turned out to be 4700 ng/mL. The CLH in series [2] was less than 7.5 µL/min/mg. The result in the series on Mus musculus [20] was inactive. For the same molecule, the Vd in series [24] stood at 1.02 L/kg. In series [26], this molecule showed a C0 at 24 h of 4640 ng/mL.
As for `O=C(NCc1ccc(C(F)(F)F)cc1)Nc1ccc(-c2ccc(=O)[nH]n2)cc1`, the IC50 in [1] is not below 0.1 µM.
In the case of `O=C(NCc1cccc(C(F)(F)F)c1)Nc1ccc(-c2ccc(=O)[nH]n2)cc1`, the half-inhibitory concentration (IC50) in series [1] is not below 0.1 µM.
For `CN(Cc1cnc2nc(N)nc(N)c2n1)c1ccc(C(=O)N[C@@H](CCC(=O)O)C(=O)O)cc1` [METHOTREXATE], the Kp in series [11] (16 h, 10 µM) came out at 0.001 ×10⁻⁶ cm/s.
For `O=C(NCc1ccccc1C(F)(F)F)Nc1ccc(-c2ccc(=O)[nH]n2)cc1`, the CLH in [2] is less than 7.5 µL/min/mg. The half-life in series [3] and in series [4] was more than 3.08 h in each case.
Consider `COc1ccc(CNC(=O)Nc2ccc(-c3ccc(=O)[nH]n3)cc2)c(C(F)(F)F)c1`, for which the CLH in series [2] is less than 7.5 µL/min/mg. In addition, the values for the half-life in series [3] and in series [4] were 0.393 h and more than 3.08 h, respectively.

The IC50 is the concentration needed to halve the response being measured. One may read the half-life as the time needed for the level to fall by half in the phase considered. The clearance is the volume of plasma or blood freed of the substance per unit of time. The low end stands for inefficient removal, the high end for efficient removal. Broadly, the bioavailability is the share of a dose that reaches the circulation, judged against a reference dose that is usually intravenous. A low value points to poor availability. One may read the Papp as a coefficient for how fast a substance crosses the barrier. High values mean fast passage, low ones slow passage. What is called AUC(0-inf) is total exposure, with the tail of the curve extrapolated. In general, MRT refers to the average time that molecules of a dose stay in the body. For orientation: Cmax means the peak of the concentration-time curve.
